Structures can show the parent of a compound that is named as a salt.

The inhibition is the relative decrease from the control value, in per cent.

One assay relates to IgG2a production. Kind of assay: Test 4 (comparison): inhibition of IgG2a production. In kind it is in vivo, Balb/c mouse. The note with it: 100 mg/kg orally once a day; for inhibition at 100 mg/kg: Mus musculus, po, Day 1 to Day 10, spleen cells, DNP-BSA 5 μg/ml, 24 hours, read-out: Inhibition rate of IgG2a production; for effects on the production of IgG2a: in words. As to the method:
(§1) Test 4: Test on the inhibition of IgE production
(§2) To a Balb/c mouse, the DNP-labeled ascaris antigen (5 μg) and Alum (1 mg) were intraperitoneally administered on Day 1 and Day 6 to sensitize the mouse with the antibody. From Day 1 to Day 10, a medicament was orally administered at a dose of 100 mg/kg once a day. On Day 11, the mouse was subjected to splenectomy and the spleen so obtained was untangled into its cells. To 5×10^7 cells/ml of the spleen cells so obtained, DNP-BSA (5 μg/ml) was added, followed by incubation at 37° C. for 24 hours. After incubation, 100 μl of the supernatant were collected and subjected to the measurement an IgE measuring kit (Yamasa Co., Ltd.). In order to determine IgG1, IgG2a and IgM, the absorbance of the incubated supernatant was measured by the EIA method and provided for comparison. The inhibition rate of IgE production was calculated according to the below-described formula. Inhibition rates of the IgG1, IgG2a and IgM production were similarly calculated, respectively. [formula]

A further assay has as its system IL-5 production. As to the kind of experiment: Test 3: inhibition of IL-5 production in human PBMC stimulated with ConA. In kind it is cell-based. Conditions: 10^-6 M, 10 μg/ml ConA, 48 hours, read-out: Inhibition rate of IL-5 production. Put shortly:
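Human PBMC from a normal volunteer, 1×10^6 cells/ml in AIM-V, stimulated with 10 μg/ml ConA alongside compound and incubated 48 h at 37 °C, 5% CO2. Supernatant IL-5 quantified by EIA; inhibition rate calculated from a formula.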

The test system of a further assay is IgM production. Kind of assay: Test 4 (comparison): inhibition of IgM production. Conditions: 100 mg/kg orally once a day; for inhibition at 100 mg/kg: Mus musculus, po, Day 1 to Day 10, spleen cells, DNP-BSA 5 μg/ml, 24 hours, read-out: Inhibition rate of IgM production; for effects on the production of IgM: in words. The class given is in vivo, Balb/c mouse. How it is done: as §1, §2

Another assay relates to IgE production. Kind of assay: Test 4: inhibition of IgE production by spleen cells of orally treated sensitized mice. The class given is in vivo, Balb/c mouse. Conditions: Mus musculus, po, 100 mg/kg orally once a day, Day 1 to Day 10, DNP-BSA 5 μg/ml, 24 hours, read-out: Inhibition rate of IgE production. As to the method: as §1, §2
Assay [1] deals with IL-4 production. Kind of assay: Test 1: inhibition of IL-4 production in human T-cell strain ATL-16T(-) stimulated with PMA (R&D Systems EIA). In kind it is cell-based. The note with it: ATL-16T(-) 1×10^6 cells/0.5 ml/well, 20 nM PMA, 48 hours, read-out: Inhibition rate of IL-4 production. Put shortly:
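ATL-16T(-) cells at 1×10^6 cells/0.5 ml/well (n=3) were stimulated with 20 nM PMA and given compound at the same time, then incubated 48 h at 37° C in 5% CO2. Supernatant IL-4 was measured by EIA, and percent inhibition was calculated.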

Another assay deals with IgG1 production. As to the kind of experiment: Test 4 (comparison): inhibition of IgG1 production. The class given is in vivo, Balb/c mouse. Conditions: 100 mg/kg orally once a day; for inhibition at 100 mg/kg: Mus musculus, po, Day 1 to Day 10, spleen cells, DNP-BSA 5 μg/ml, 24 hours, read-out: Inhibition rate of IgG1 production; for effects on the production of IgG1: in words. As to the method: as §1, §2

Assay [2] deals with IL-4 production. Kind of assay: Test 2: inhibition of IL-4 production in human T-cell strain ATL-16T(-) stimulated with PMA (Bio Source EIA). The note with it: ATL-16T(-) 5×10^5 cells/0.5 ml/well, 20 nM PMA, 48 hours, read-out: Inhibition rate of IL-4 production; for inhibition at 10 µM: 10^-5 M; for inhibition at 1 µM: 10^-6 M; for inhibition at 0.1 µM: 10^-7 M; for inhibition at 0.01 µM: 10^-8 M. In kind it is cell-based. As to the method:
Test 2: Test on the inhibition of IL-4 production
Into individual wells of a 48-well microplate, the human T-cell strain ATL-16T(-) was poured at a concentration of 5×10^5 cells/0.5 ml/well (n=3), followed by the addition of a stimulator (20 nM of PMA) and a medicament at the same time. The resulting mixture was incubated in 5% CO2 at 37° C. for 48 hours. After incubation, 50 μl of the supernatant were collected and subjected to measurement by a human IL-4 EIA kit (BIO SOURCE, INC.). The inhibition rate was calculated according to the following formula. [formula]

Take `CCOC(=O)CCCOc1cc(/C=C/C(=O)c2ccccc2)ncc1OC` [Ex. 44, Ethyl 4-[5-methyoxy-2-(3-oxo-3-phenyl-1-propenyl)-4-pyridyloxy]butanoate]: the inhibition at 100 mg/kg with IgG2a production was -2.2%; in the assay on IgM production, -4.2%; in the assay on IgE production, 26.7%; with IgG1 production, 8%. The inhibition at 1 µM with IL-5 production was 90.6%; with IL-4 production [1] (10^-6 M), 86.1%. Further, in the assay on IL-4 production [1] (10^-5 M), the inhibition at 10 µM turned out to be 89.1%. The inhibition at 0.1 µM in the assay on IL-4 production [1] (10^-7 M) turned out to be 56.2%. Moreover, the inhibition at 0.01 µM in the assay on IL-4 production [1] (10^-8 M) came to 46.5%.

Consider `CCOC(=O)CCCCCOc1cc(/C=C/C(=O)C2CCCCC2)ncc1OC` [Ex. 77, Ethyl 6-[2-(3-cyclohexyl-3-oxo-1-propenyl)-5-methoxy-4-pyridyloxy]hexanoatehydrochloride], for which, in the assay on IgG2a production, the inhibition at 100 mg/kg was -3.9% and the “effects on the production of IgG2a” value is listed as “No effects were observed”. Moreover, in the assay with IL-5 production, the inhibition at 1 µM came to 82%. In the assay with IL-4 production [2], the inhibition at 10 µM was determined as 68.6%, the inhibition at 1 µM worked out at 66%, the inhibition at 0.1 µM turned out to be 65% and the inhibition at 0.01 µM was 64.5%. Also, in the assay on IgM production, the inhibition at 100 mg/kg stood at 1.2% and the “effects on the production of IgM” value is on record as “No effects were observed”. Besides, in the assay on IgE production, the inhibition at 100 mg/kg came to 55.8%. Besides, in the assay with IgG1 production, the inhibition at 100 mg/kg is -6.3% and the “effects on the production of IgG1” value is listed as “No effects were observed”.

Turning to `CCOC(=O)CCCOc1cc(/C=C/C(=O)c2c(OC)cccc2OC)ncc1OC` [Ex. 86, Ethyl 4-[5-methoxy-2-(3-(2,6-dimethoxyphenyl)-3-oxo-1-propenyl)-4-pyridyloxy]butanoate hydrochloride], the inhibition at 100 mg/kg is 6.2% with IgG2a production, -2.7% in the assay on IgM production, 35.9% in the assay on IgE production and -1.1% in the assay with IgG1 production. The inhibition at 1 µM in the assay with IL-5 production came out at 71.9%; with IL-4 production [2], 80.1%. Moreover, in the assay on IL-4 production [2], the inhibition at 10 µM worked out at 94.6%. Further, the inhibition at 0.1 µM with IL-4 production [2] came out at 77.6%. For the same compound, in the assay with IL-4 production [2], the inhibition at 0.01 µM was found to be 73.6%.

On to `CCOC(=O)CCCOc1cc(/C=C/C(=O)c2cc(OC)ccc2OC)ncc1OC` [Ex. 87, Ethyl 4-[5-methoxy-2-(3-(2,5-dimethoxyphenyl)-3-oxo-1-propenyl)-4-pyridyloxy]butanoate hydrochloride], for which the inhibition at 100 mg/kg is -8.1% with IgG2a production, -0.1% in the assay on IgM production, 30.5% in the assay on IgE production and -3.4% in the assay with IgG1 production. The inhibition at 1 µM with IL-5 production amounted to 90.2%; in the assay on IL-4 production [2], 73.4%. Further, in the assay with IL-4 production [2], the inhibition at 10 µM was determined as 78.3%. Further, the inhibition at 0.1 µM with IL-4 production [2] turned out to be 72.2%. Besides, in the assay with IL-4 production [2], the inhibition at 0.01 µM was 69.3%.

Take `CCOC(=O)CCCCCOc1cc(/C=C/C(=O)c2cc(OC)ccc2OC)ncc1OC` [Ex. 88, Ethyl 6-[5-methoxy-2-(3-(2,5-dimethoxyphenyl)-3-oxo-1-propenyl)-4-pyridyloxy]hexanoate hydrochloride]: the inhibition at 100 mg/kg is 8.6% with IgG2a production, -4.2% in the assay with IgM production, 22.7% with IgE production and -6.9% in the assay on IgG1 production. Also, the results for the inhibition at 1 µM in the assay with IL-5 production and with IL-4 production [2] were 61.6% and 74.4%, respectively. Also, the inhibition at 10 µM in the assay with IL-4 production [2] turned out to be 74.2%. In the assay with IL-4 production [2], the inhibition at 0.1 µM was determined as 71.7%. The inhibition at 0.01 µM with IL-4 production [2] was 68%.

For the compound `CCOC(=O)CCCCCOc1cc(/C=C/C(=O)c2ccc(OC)c(OC)c2)ncc1OC` [Ex. 90, Ethyl 6-[5-methoxy-2-(3-(3,4-dimethoxyphenyl)-3-oxo-1-propenyl)-4-pyridyloxy]hexanoate hydrochloride], the inhibition at 100 mg/kg was 7% with IgG2a production, -10.3% in the assay on IgM production, 21.5% in the assay with IgE production and 2.7% in the assay on IgG1 production. In addition, the inhibition at 1 µM amounted to 75.6% in the assay on IL-5 production and 26.4% in the assay with IL-4 production [2]. In addition, the inhibition at 10 µM in the assay with IL-4 production [2] was 25.3%. Also, the inhibition at 0.1 µM in the assay on IL-4 production [2] is 28.6%. In the assay with IL-4 production [2], the inhibition at 0.01 µM stood at 43.2%.

As for `CCOC(=O)CCCCCOc1cc(/C=C/C(=O)c2ccc(OC)cc2OC)ncc1OC` [Ex. 92, Ethyl 6-[5-methoxy-2-(3-(2,4-dimethoxyphenyl)-3-oxo-1-propenyl)-4-pyridyloxy]hexanoate hydrochloride], in the assay on IgG2a production, the inhibition at 100 mg/kg was -6% and the “effects on the production of IgG2a” value is “No effects were observed”. For the same compound, the inhibition at 1 µM with IL-5 production came out at 96.4%. In the assay with IL-4 production [2], the inhibition at 10 µM is 54.2%, the inhibition at 1 µM was 48.4%, the inhibition at 0.1 µM is 31% and the inhibition at 0.01 µM turned out to be 25.3%. Moreover, in the assay on IgM production, the inhibition at 100 mg/kg was -8.3% and the “effects on the production of IgM” value is recorded as “No effects were observed”. In addition, the inhibition at 100 mg/kg in the assay with IgE production turned out to be 61.2%. Also, in the assay on IgG1 production, the inhibition at 100 mg/kg is -4.3% and the “effects on the production of IgG1” value was “No effects were observed”.

For the compound `CCOC(=O)CCCCCOc1cc(/C=C/C(=O)c2ccccc2OC)ncc1OC` [Ex. 94, Ethyl 6-[5-methoxy-2-(3-(2-methoxyphenyl)-3-oxo-1-propenyl)-4-pyridyloxy]hexanoate hydrochloride], in the assay with IgG2a production, the inhibition at 100 mg/kg came out at 2.8% and the “effects on the production of IgG2a” value is “No effects were observed”. For the same compound, the inhibition at 1 µM with IL-5 production was 95.2%. In the assay on IL-4 production [2], the inhibition at 10 µM stood at 74.4%, the inhibition at 1 µM stood at 70.4%, the inhibition at 0.1 µM came to 66.5% and the inhibition at 0.01 µM turned out to be 62.3%. Besides, in the assay on IgM production, the inhibition at 100 mg/kg is -1.6% and the “effects on the production of IgM” value is recorded as “No effects were observed”. The inhibition at 100 mg/kg in the assay with IgE production came out at 63.4%. For the same compound, in the assay with IgG1 production, the inhibition at 100 mg/kg is 7% and the “effects on the production of IgG1” value is “No effects were observed”.

Regarding `CCOC(=O)CCCCCCOc1cc(/C=C/C(=O)c2ccccc2OC)ncc1OC` [Ex. 96, Ethyl 7-[5-methoxy-2-(3-(2-methoxyphenyl)-3-oxo-1-propenyl)-4-pyridyloxy]heptanoate hydrochloride], in the assay on IgG2a production, the inhibition at 100 mg/kg was determined as 8.3% and the “effects on the production of IgG2a” value is “No effects were observed”. Moreover, the inhibition at 1 µM in the assay on IL-5 production amounted to 79.8%. Further, in the assay on IL-4 production [2], the inhibition at 10 µM stood at 102%, the inhibition at 1 µM came out at 76.2%, the inhibition at 0.1 µM was found to be 78.6% and the inhibition at 0.01 µM stood at 78.2%. In addition, in the assay with IgM production, the inhibition at 100 mg/kg was 9.6% and the “effects on the production of IgM” value is on record as “No effects were observed”. For the same compound, in the assay on IgE production, the inhibition at 100 mg/kg stood at 63.2%. In addition, in the assay with IgG1 production, the inhibition at 100 mg/kg was 5% and the “effects on the production of IgG1” value was “No effects were observed”.

The record behind these values is patent US6046218A, “Pyridine derivative and medicament containing the same as an effective ingredient” (SS Pharmaceutical Co., Ltd., priority 1996, dated 2000).
